Earlier results as cited in PubChem BioAssay AID1259409 (Chemical Carcinogenesis Research Information System (CCRIS), 2018).

Tested on: rodent chemically induced tumor inhibition, incidence and multiplicity
Test: CCRIS tumor inhibitor studies
Details: for tumour outcome (control, treated, inhibition, significance): Promoter: NONE USED

For S=C=NCc1ccccc1, the “tumour outcome (control, treated, inhibition, significance)” value (Carcinogen: 7,12-DIMETHYLBENZ[A]ANTHRACENE, 57-97-6, Dose [Inhibitor]: 50 MG ONCE 4 HR BEFORE DMBA TREATMENT (STUDY DURATION: 18 WK), Route [Inhibitor]: INTRAGASTRIC, Species: RAT, Strain/Sex: SPRAGUE-DAWLEY/FEMALE, Target Tissue: Type of Lesion: MAMMARY GLAND: TUMOR, Dose [Carcinogen]: 12 MG IN 1 ML OLIVE OIL AT AGE 7 WK 4 HR BEFORE AGENT TREATMENT) is listed as 100%, 14%, 86%, p<0.001, the “tumour outcome (control, treated, inhibition, significance)” value (Carcinogen: 7,12-DIMETHYLBENZ[A]ANTHRACENE, 57-97-6, Dose [Inhibitor]: 50 MG ONCE 24 HR BEFORE DMBA TREATMENT (STUDY DURATION: 18 WK), Route [Inhibitor]: INTRAGASTRIC, Species: RAT, Strain/Sex: SPRAGUE-DAWLEY/FEMALE, Target Tissue: Type of Lesion: MAMMARY GLAND: TUMOR, Dose [Carcinogen]: 12 MG IN 1 ML OLIVE OIL AT AGE 7 WK 24 HR AFTER AGENT TREATMENT) is listed as 93%, 71%, 24%, not significant and the outcome (Carcinogen: BENZO[A]PYRENE, 50-32-8, Dose [Inhibitor]: 0, 5 UMOL IN ACETONE 4 HR PRIOR TO CARCINOGEN DOSE (STUDY DURATION: 20 WK), Route [Inhibitor]: DERMAL, Species: MOUSE, Strain/Sex: STRAIN-A/FEMALE, Target Tissue: Type of Lesion: SKIN: TUMOR, Dose [Carcinogen]: 0.1 UMOL IN ACETONE ONCE, Promoter: 12-O-TETRADECANOYLPHORBOL-13-ACETATE, 16561-29-8) is listed as 70%, 60%, 14%, not significant at 15 wk; 95%, 75%, 21%, not significant at 20 wk. The “tumour outcome (control, treated, inhibition, significance)” value (Carcinogen: BENZO[A]PYRENE, 50-32-8, Dose [Inhibitor]: 0, 6.7 UMOL IN COTTONSEED OIL 15 MIN PRIOR TO CARCINOGEN DOSES 1/2 WK FOR 3 TREATMENTS (STUDY DURATION: 26 WK), Route [Inhibitor]: GAVAGE, Species: MOUSE, Strain/Sex: STRAIN-A/FEMALE, Target Tissue: Type of Lesion: FORESTOMACH: TUMOR, Dose [Carcinogen]: 7.9 UMOL IN COTTONSEED OIL 1/2 WK FOR 3 TREATMENTS) was 95%, 95%, 0%, not significant, the “tumour outcome (control, treated, inhibition, significance)” value (Carcinogen: BENZO[A]PYRENE, 50-32-8, Dose [Inhibitor]: 0, 6.7 UMOL IN COTTONSEED OIL 15 MIN PRIOR TO CARCINOGEN DOSES 1/2 WK FOR 3 TREATMENTS (STUDY DURATION: 26 WK), Route [Inhibitor]: GAVAGE, Species: MOUSE, Strain/Sex: STRAIN-A/FEMALE, Target Tissue: Type of Lesion: LUNG: TUMOR, Dose [Carcinogen]: 7.9 UMOL IN COTTONSEED OIL 1/2 WK FOR 3 TREATMENTS) was 95%, 80%, 16%, not significant and the “tumour outcome (control, treated, inhibition, significance)” value (Carcinogen: BENZO[A]PYRENE, 50-32-8, Dose [Inhibitor]: 5 MG/G DIET AT AGE 9 WK SIMULTANEOUSLY WITH CARCINOGEN, 3/WK FOR 6 WK (STUDY DURATION: 20 WK), Route [Inhibitor]: ORAL, Species: MOUSE, Strain/Sex: ICR/FEMALE, Target Tissue: Type of Lesion: FORESTOMACH: TUMOR, Dose [Carcinogen]: 0.3 MG/G DIET AT AGE 9 WK, 3/WK FOR 6 WK) was 41%, 0%, 100%, p<0.01. For the same compound, the “tumour outcome (control, treated, inhibition, significance)” value (Carcinogen: DIETHYLNITROSAMINE, 55-18-5, Dose [Inhibitor]: 0, 100 PPM IN DIET FOR DURATION OF STUDY BEGINNING 1 WK PRIOR TO CARCINOGEN DOSE (STUDY DURATION: 53 WK), Route [Inhibitor]: ORAL, Species: RAT, Strain/Sex: ACI/MALE, Target Tissue: Type of Lesion: LIVER: HEPATOCELLULAR ADENOMA, Dose [Carcinogen]: 200 MG/KG BW ONCE) was 10/18 (55%), 1/17 (6%), 89%, p<0.002, the “tumour outcome (control, treated, inhibition, significance)” value (Carcinogen: DIETHYLNITROSAMINE, 55-18-5, Dose [Inhibitor]: 0, 100 PPM IN DIET FOR DURATION OF STUDY BEGINNING 1 WK PRIOR TO CARCINOGEN DOSE (STUDY DURATION: 53 WK), Route [Inhibitor]: ORAL, Species: RAT, Strain/Sex: ACI/MALE, Target Tissue: Type of Lesion: LIVER: HEPATOCELLULAR CARCINOMA, Dose [Carcinogen]: 200 MG/KG BW ONCE) was 6/18 (33%), 0/17 (0%), 100%, p<0.02 and the “tumour outcome (control, treated, inhibition, significance)” value (Carcinogen: METHYLAZOXYMETHANOL ACETATE, 592-62-1, Dose [Inhibitor]: 0, 400 PPM IN DIET FOR 4 WK BEGINNING 1 WK PRIOR TO CARCINOGEN TREATMENT (STUDY DURATION: 49 WK), Route [Inhibitor]: ORAL, Species: RAT, Strain/Sex: ACI/FEMALE, Target Tissue: Type of Lesion: COLON: ADENOMA OR CARCINOMA, Dose [Carcinogen]: 25 MG/KG BW 1/WK FOR 3 WK) was 15/18 (83%), 9/19 (47%), 43%, p<0.05. The “tumour outcome (control, treated, inhibition, significance)” value (Carcinogen: METHYLAZOXYMETHANOL ACETATE, 592-62-1, Dose [Inhibitor]: 0, 400 PPM IN DIET FOR 46 WK BEGINNING 1 WK POST CARCINOGEN TREATMENT (STUDY DURATION: 49 WK), Route [Inhibitor]: ORAL, Species: RAT, Strain/Sex: ACI/FEMALE, Target Tissue: Type of Lesion: COLON: ADENOMA OR CARCINOMA, Dose [Carcinogen]: 25 MG/KG BW 1/WK FOR 3 WK) was 15/18 (83%), 17/19 (89%), -7%, not significant, the “tumour outcome (control, treated, inhibition, significance)” value (Carcinogen: METHYLAZOXYMETHANOL ACETATE, 592-62-1, Dose [Inhibitor]: 0, 400 PPM IN DIET FOR 46 WK BEGINNING 1 WK POST CARCINOGEN TREATMENT (STUDY DURATION: 49 WK), Route [Inhibitor]: ORAL, Species: RAT, Strain/Sex: ACI/FEMALE, Target Tissue: Type of Lesion: SMALL INTESTINE: CARCINOMA, Dose [Carcinogen]: 25 MG/KG BW 1/WK FOR 3 WK) was 10/18 (56%), 10/19 (53%), 5%, not significant and the “tumour outcome (control, treated, inhibition, significance)” value (Carcinogen: N-BUTYL-N-(4-HYDROXYBUTYL)NITROSAMINE (3817-11-6), Dose [Inhibitor]: 0, 10 PPM IN THE DIET FOR 40 WK (STUDY DURATION: 40 WK), Route [Inhibitor]: ORAL, Species: RAT, Strain/Sex: F344/MALE, Target Tissue: Type of Lesion: URINARY BLADDER: CARCINOMA, Dose [Carcinogen]: 50 PPM IN DRINKING WATER FOR 40 WK) was 19/20 (95%), 18/20 (90%), 5%, not significant. The “tumour outcome (control, treated, inhibition, significance)” value (Carcinogen: N-BUTYL-N-(4-HYDROXYBUTYL)NITROSAMINE (3817-11-6), Dose [Inhibitor]: 0, 10 PPM IN THE DIET FOR 40 WK (STUDY DURATION: 40 WK), Route [Inhibitor]: ORAL, Species: RAT, Strain/Sex: F344/MALE, Target Tissue: Type of Lesion: URINARY BLADDER: PAPILLOMA, Dose [Carcinogen]: 50 PPM IN DRINKING WATER FOR 40 WK) was 15/20 (75%), 11/20 (55%), 27%, not significant, the “tumour outcome (control, treated, inhibition, significance)” value (Carcinogen: N-BUTYL-N-(4-HYDROXYBUTYL)NITROSAMINE (3817-11-6), Dose [Inhibitor]: 0, 100 PPM IN THE DIET FOR 40 WK (STUDY DURATION: 40 WK), Route [Inhibitor]: ORAL, Species: RAT, Strain/Sex: F344/MALE, Target Tissue: Type of Lesion: URINARY BLADDER: CARCINOMA, Dose [Carcinogen]: 50 PPM IN DRINKING WATER FOR 40 WK) was 19/20 (95%), 15/20 (75%), 21%, not significant and the “tumour outcome (control, treated, inhibition, significance)” value (Carcinogen: N-BUTYL-N-(4-HYDROXYBUTYL)NITROSAMINE (3817-11-6), Dose [Inhibitor]: 0, 100 PPM IN THE DIET FOR 40 WK (STUDY DURATION: 40 WK), Route [Inhibitor]: ORAL, Species: RAT, Strain/Sex: F344/MALE, Target Tissue: Type of Lesion: URINARY BLADDER: PAPILLOMA, Dose [Carcinogen]: 50 PPM IN DRINKING WATER FOR 40 WK) was 15/20 (75%), 9/20 (45%), 40%, p< 0.05. The “tumour outcome (control, treated, inhibition, significance)” value (Carcinogen: N-BUTYL-N-(4-HYDROXYBUTYL)NITROSAMINE (3817-11-6), Dose [Inhibitor]: 0, 1000 PPM IN THE DIET FOR 40 WK (STUDY DURATION: 40 WK), Route [Inhibitor]: ORAL, Species: RAT, Strain/Sex: F344/MALE, Target Tissue: Type of Lesion: URINARY BLADDER: CARCINOMA, Dose [Carcinogen]: 50 PPM IN DRINKING WATER FOR 40 WK) was 19/20 (95%), 5/20 (25%), 74%, p< 0.01, the “tumour outcome (control, treated, inhibition, significance)” value (Carcinogen: N-BUTYL-N-(4-HYDROXYBUTYL)NITROSAMINE (3817-11-6), Dose [Inhibitor]: 0, 1000 PPM IN THE DIET FOR 40 WK (STUDY DURATION: 40 WK), Route [Inhibitor]: ORAL, Species: RAT, Strain/Sex: F344/MALE, Target Tissue: Type of Lesion: URINARY BLADDER: PAPILLOMA, Dose [Carcinogen]: 50 PPM IN DRINKING WATER FOR 40 WK) was 15/20 (75%), 2/20 (10%), 87%, p< 0.01 and the “tumour outcome (control, treated, inhibition, significance)” value (Carcinogen: N-NITROSOMETHYLBENZYLAMINE, 937-40-6, Dose [Inhibitor]: 0, 0.4 UMOL/G IN DIET FOR 25 WK BEGINNING 2 WK PRIOR TO CARCINOGEN TREATMENT (STUDY DURATION: 25 WK), Route [Inhibitor]: ORAL, Species: RAT, Strain/Sex: F344/MALE, Target Tissue: Type of Lesion: ESOPHAGUS: TUMOR, Dose [Carcinogen]: 0.5 MG/KG BW IN 20% DMSO 1/WK FOR 15 WK) was 100%, 100%, 0%, not significant. The “tumour outcome (control, treated, inhibition, significance)” value (Carcinogen: N-NITROSOMETHYLBENZYLAMINE, 937-40-6, Dose [Inhibitor]: 0, 1 UMOL/G IN DIET FOR 25 WK BEGINNING 2 WK PRIOR TO CARCINOGEN TREATMENT (STUDY DURATION: 25 WK), Route [Inhibitor]: ORAL, Species: RAT, Strain/Sex: F344/MALE, Target Tissue: Type of Lesion: ESOPHAGUS: TUMOR, Dose [Carcinogen]: 0.5 MG/KG BW IN 20% DMSO 1/WK FOR 15 WK) was 100%, 100%, 0%, not significant and the “tumour outcome (control, treated, inhibition, significance)” value (Carcinogen: N-NITROSOMETHYLBENZYLAMINE, 937-40-6, Dose [Inhibitor]: 0, 2.5 UMOL/G IN DIET FOR 25 WK BEGINNING 2 WK PRIOR TO CARCINOGEN TREATMENT (STUDY DURATION: 25 WK), Route [Inhibitor]: ORAL, Species: RAT, Strain/Sex: F344/MALE, Target Tissue: Type of Lesion: ESOPHAGUS: TUMOR, Dose [Carcinogen]: 0.5 MG/KG BW IN 20% DMSO 1/WK FOR 15 WK) was 100%, 100%, 0%, not significant.
